Values of other authors in patent US6346251B1 (priority 1999, dated 2002).

Legend:
cancer = settings: Phase II testing
[1] = test system: human epidermoid cells, virally infected with HSV-2

Row | SMILES | hematologic toxicity (cancer) | tumor response (cancer) | Trichothecene Concentrations, Protein Synthesis Inhibition 50% [1] | Trichothecene Concentrations, Protein Synthesis Inhibition 80% (PIC80) [1] | Trichothecene Concentrations, Protein Synthesis Inhibition 85% (PIC85) [1] | Trichothecene Concentrations, Protein Synthesis Inhibition 90% (PIC90) [1] | hyperactive protein synthesis inhibited [1] | Trichothecene Concentrations, PIC100 max (human epidermoid cells) | concentrations that did not reduce cell viability (human epidermoid cells) | nontoxic zone (human epidermoid cells) | safe level (human epidermoid cells)
1 | CC(=O)OC[C@]12CCC(C)=C[C@H]1O[C@@H]1[C@H](O)[C@@H](OC(C)=O)[C@@]2(C)[C@]12CO2 [Anguidine] | considerable hematologic toxicity | low tumor response |  |  |  |  |  |  |  |  | 
2 | CC(=O)OC[C@]12CCC(C)=C[C@H]1O[C@@H]1[C@H](O)[C@@H](OC(C)=O)[C@@]2(C)[C@]12CO2 [DAS] |  |  | 2.3 ng/mL | 4.0 ng/mL | 4.2 ng/mL | 4.5 ng/mL | ~99% | 200 ng/mL | up to 200 ng/ml | < 200 ng/mL | 200 ng/mL
